Data as given in PubChem BioAssay AID1918996 (Molecular Pharmacology Branch, DTP, NCI, 2023).
pIC50: −log10 of the molar value.

Tested on: 349418-098-R-PDC complex spheroid growth
Experiment: Anticancer human tumor 349418-098-R-PDC patient-derived lung adenocarcinoma cell line growth inhibition [AhR]
Conditions: for pIC50: curve of first compound; for viability, T/C: stronger effect = lower value
Source text: Multicellular complex tumor spheroid response to aryl hydrocarbon receptor antagonists in combination with a variety of drugs and investigational agents in selected tumor cell lines
The current study was undertaken to assess response to aryl hydrocarbon receptor antagonists in combination with standard-of-care drugs and investigational agents in solid tumor complex spheroid models. Complex spheroids include a stromal component modeled by human endothelial cells (HUVEC) and fibroblasts modeled by human mesenchymal stem cells (MSCs). The concentration ranges selected for each drug and investigational agent were based upon clinically achievable concentrations if the clinical Cmax of the agent was known.
Compounds. The drugs and investigational agents: BAY 2416964 (NSC825713), GNF351 (NSC835774), CH-223191 (NSC835775), CPI-455 (NSC825282), aza-TdCyd (NSC777586), decitabine (NSC127716), belinostat (NSC758774), entinostat (NSC756642), pevonedistat (NSC761192), tazemetostat (NSC777109), talazoparib (NSC765396), olaparib (NSC753686), selinexor (NSC780203), nedisertib (M3814, NSC802822), bortezomib (NSC756655), venetoclax (NSC766270), doxorubicin (NSC123127), elimusertib (BAY189344, NSC800525), ceralasertib (AZD6738, NSC777638), TAK-243 (NSC785004), alisertib (NSC759677), etoposide (NSC141540), topotecan (NSC609699), eribulin (NSC707389), gemcitabine (NSC613327), carboplatin (NSC241240), cisplatin (NSC119875), and SN-38 (NSC673596) were obtained from the National Cancer Institute (NCI) Developmental Therapeutics Program Chemical Repository (32). The FDA-approved anticancer drug set is available from the Developmental Therapeutics Program at https://dtp.cancer.gov/organization/dscb/obtaining/available plates.htm. […] The stock solutions were prepared in dimethyl sulfoxide (DMSO, Sigma-Aldrich, St. Louis, MO, cat. D2650), except for the platinum compounds which were prepared in saline (Quality Biological, Gaithersburg, MD, cat. 114-055-101), at 800-fold the tested concentration and stored at -70 degrees C prior to their use. All drugs and investigational agents were tested over a range starting from a high concentration at or near the clinical Cmax and decreasing in half-log increments. If the clinical Cmax for an agent had not been determined, the highest concentration tested was 10 microM (Table 1).
Cell Culture. All cells were maintained in an incubator at 37 degrees C and 5% CO2 with 95% humidity. The PDC lines were cultured according to standard operating procedures established by the NCI PDMR (https://pdmr.cancer.gov). Briefly, all PDCs were thawed and cultured in Matrigel-coated flasks prepared with a working solution of 1X Ham's F-12 nutrient mix, without supplementation (Invitrogen, Waltham, MA, cat. 11765054), 100 U/mL penicillin-streptomycin (Invitrogen, cat. 15140122), and 2.5% Matrigel (Corning Inc., Corning, NY, cat. 354248) for the first three passages. All PDCs were cultured in complete DMEM/F-12 media containing advanced DMEM/F-12 (Invitrogen, cat. 12634028), 4.9% defined fetal bovine serum, heat inactivated (HyClone Laboratories Inc., Logan, UT, cat. SH30070.03HI), 389 ng/mL hydrocortisone (Sigma-Aldrich, cat. H4001), 9.7 ng/mL human EGF recombinant protein (Invitrogen, cat. PHG0313), 23.4 microg/mL adenine (Sigma-Aldrich, cat. A2786), 97.3 U/mL penicillin-streptomycin (Invitrogen, cat. 15140122), 1.9 mM L-glutamine (Invitrogen, cat. 25030081), and 9.7 microM Y-27632 dihydrochloride (Tocris Bioscience, Bristol, United Kingdom, cat. 1254). The PDCs were cultured in complete DMEM/F12 media without 10 microM Y-27632 dihydrochloride for at least two passages prior to the screen. The established cell lines NCI-H1341 and […] were cultured in DMEM/F-12, HEPES (Invitrogen, cat. 11330032), 5% defined fetal bovine serum (HyClone Laboratories Inc., cat. SH30070.03), ITS premix universal culture supplement [insulin (5 microg/mL), transferrin (5 microg/mL), and selenious acid (5 ng/mL)] […]
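Also: spheroids exposed to agents for seven days before luminescence viability read.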
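For viability, T/C in this document: spheroids also contain HUVEC endothelial cells and human MSC stroma.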

For `CCc1c2c(nc3ccc(O)cc13)-c1cc3c(c(=O)n1C2)COC(=O)[C@]3(O)CC` + CC(CO)NC(=O)c1cc(-c2ccc(Cl)cc2)nn(-c2cnn(C)c2)c1=O, the pIC50 (second compound 0.1 µM) was > 9.02, the pIC50 (second compound 0.316 µM) was > 9.02 and the pIC50 (second compound 1 µM) was > 9.02. For the same molecule, the pIC50 (second compound 3.16 µM) was > 9.02, the pIC50 (second compound 10 µM) was > 9.02 and the viability, T/C (second compound 0.1 µM, first compound 0.000949 µM) was 42.1%. For the same molecule, the viability, T/C (second compound 0.1 µM, first compound 0.003 µM) was 37.1%, the viability, T/C (second compound 0.1 µM, first compound 0.00949 µM) was 18.3% and the viability, T/C (second compound 0.1 µM, first compound 0.03 µM) was 8.94%. It also gave a viability, T/C (second compound 0.1 µM, first compound 0.0949 µM) of 5.8%, a viability, T/C (second compound 0.1 µM, first compound 0.3 µM) of 3.72% and a viability, T/C (second compound 0.316 µM, first compound 0.000949 µM) of 34.2%. The viability, T/C (second compound 0.316 µM, first compound 0.003 µM) was 30.5%, the viability, T/C (second compound 0.316 µM, first compound 0.00949 µM) was 13.1% and the viability, T/C (second compound 0.316 µM, first compound 0.03 µM) was 7.93%. It also gave a viability, T/C (second compound 0.316 µM, first compound 0.0949 µM) of 5.5%, a viability, T/C (second compound 0.316 µM, first compound 0.3 µM) of 4.2% and a viability, T/C (second compound 1 µM, first compound 0.000949 µM) of 33.9%. The viability, T/C (second compound 1 µM, first compound 0.003 µM) was 21%, the viability, T/C (second compound 1 µM, first compound 0.00949 µM) was 14.2% and the viability, T/C (second compound 1 µM, first compound 0.03 µM) was 9.54%. It also gave a viability, T/C (second compound 1 µM, first compound 0.0949 µM) of 8.88%, a viability, T/C (second compound 1 µM, first compound 0.3 µM) of 4.3% and a viability, T/C (second compound 3.16 µM, first compound 0.000949 µM) of 22.4%. It also gave a viability, T/C (second compound 3.16 µM, first compound 0.003 µM) of 18.9%, a viability, T/C (second compound 3.16 µM, first compound 0.00949 µM) of 13% and a viability, T/C (second compound 3.16 µM, first compound 0.03 µM) of 7.97%. It also gave a viability, T/C (second compound 3.16 µM, first compound 0.0949 µM) of 6.24%, a viability, T/C (second compound 3.16 µM, first compound 0.3 µM) of 4.5% and a viability, T/C (second compound 10 µM, first compound 0.000949 µM) of 20.1%. For the same molecule, the viability, T/C (second compound 10 µM, first compound 0.003 µM) was 17.4%, the viability, T/C (second compound 10 µM, first compound 0.00949 µM) was 12.2% and the viability, T/C (second compound 10 µM, first compound 0.03 µM) was 8.79%. For the same molecule, the viability, T/C (second compound 10 µM, first compound 0.0949 µM) was 6.32% and the viability, T/C (second compound 10 µM, first compound 0.3 µM) was 5.7%.
